Laboratory results: publication PMC9851200, “Multiparameter phenotypic screening for endogenous TFEB and TFE3 translocation identifies novel chemical series modulating lysosome function” (Autophagy, 2022)

Key:
Assay type in all cases: binding
[1] = biological target: kinases (KINOMEscan panel) (Homo sapiens, UniProt P68400); settings: CSNK2A1; NEW KINOMEscan
[2] = biological target: kinases (KINOMEscan panel) (Homo sapiens, UniProt Q05655); settings: kinase PRKCD; NEW KINOMEscan
[3] = biological target: T1, kinases (KINOMEscan panel) (Homo sapiens, UniProt Q8TDC3); settings: BRSK1; NEW KINOMEscan
T1 sequence (Q8TDC3 1-778): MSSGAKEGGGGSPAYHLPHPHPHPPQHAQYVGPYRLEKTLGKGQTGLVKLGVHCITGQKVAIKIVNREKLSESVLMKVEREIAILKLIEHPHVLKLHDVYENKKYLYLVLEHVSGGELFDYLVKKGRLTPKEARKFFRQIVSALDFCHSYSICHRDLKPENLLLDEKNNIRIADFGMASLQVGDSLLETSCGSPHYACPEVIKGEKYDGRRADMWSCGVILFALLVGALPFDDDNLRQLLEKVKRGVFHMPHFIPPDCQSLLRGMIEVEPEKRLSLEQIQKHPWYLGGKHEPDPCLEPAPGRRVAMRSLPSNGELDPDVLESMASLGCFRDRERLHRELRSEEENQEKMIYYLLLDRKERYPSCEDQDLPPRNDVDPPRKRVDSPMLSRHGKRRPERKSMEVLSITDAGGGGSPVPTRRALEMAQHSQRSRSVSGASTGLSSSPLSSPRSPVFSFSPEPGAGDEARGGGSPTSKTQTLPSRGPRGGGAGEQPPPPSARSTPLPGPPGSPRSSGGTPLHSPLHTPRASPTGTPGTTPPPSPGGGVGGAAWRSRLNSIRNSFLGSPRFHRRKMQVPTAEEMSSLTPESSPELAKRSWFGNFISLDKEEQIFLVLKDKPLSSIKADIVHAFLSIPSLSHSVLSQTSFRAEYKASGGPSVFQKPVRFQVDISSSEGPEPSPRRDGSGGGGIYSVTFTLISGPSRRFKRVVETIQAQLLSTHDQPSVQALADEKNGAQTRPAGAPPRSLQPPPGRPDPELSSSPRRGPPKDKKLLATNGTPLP

[4] = biological target: T2, kinases (KINOMEscan panel) (Homo sapiens, UniProt O15197); settings: kinase EPHB6; NEW KINOMEscan
T2 sequence (O15197 32-1021): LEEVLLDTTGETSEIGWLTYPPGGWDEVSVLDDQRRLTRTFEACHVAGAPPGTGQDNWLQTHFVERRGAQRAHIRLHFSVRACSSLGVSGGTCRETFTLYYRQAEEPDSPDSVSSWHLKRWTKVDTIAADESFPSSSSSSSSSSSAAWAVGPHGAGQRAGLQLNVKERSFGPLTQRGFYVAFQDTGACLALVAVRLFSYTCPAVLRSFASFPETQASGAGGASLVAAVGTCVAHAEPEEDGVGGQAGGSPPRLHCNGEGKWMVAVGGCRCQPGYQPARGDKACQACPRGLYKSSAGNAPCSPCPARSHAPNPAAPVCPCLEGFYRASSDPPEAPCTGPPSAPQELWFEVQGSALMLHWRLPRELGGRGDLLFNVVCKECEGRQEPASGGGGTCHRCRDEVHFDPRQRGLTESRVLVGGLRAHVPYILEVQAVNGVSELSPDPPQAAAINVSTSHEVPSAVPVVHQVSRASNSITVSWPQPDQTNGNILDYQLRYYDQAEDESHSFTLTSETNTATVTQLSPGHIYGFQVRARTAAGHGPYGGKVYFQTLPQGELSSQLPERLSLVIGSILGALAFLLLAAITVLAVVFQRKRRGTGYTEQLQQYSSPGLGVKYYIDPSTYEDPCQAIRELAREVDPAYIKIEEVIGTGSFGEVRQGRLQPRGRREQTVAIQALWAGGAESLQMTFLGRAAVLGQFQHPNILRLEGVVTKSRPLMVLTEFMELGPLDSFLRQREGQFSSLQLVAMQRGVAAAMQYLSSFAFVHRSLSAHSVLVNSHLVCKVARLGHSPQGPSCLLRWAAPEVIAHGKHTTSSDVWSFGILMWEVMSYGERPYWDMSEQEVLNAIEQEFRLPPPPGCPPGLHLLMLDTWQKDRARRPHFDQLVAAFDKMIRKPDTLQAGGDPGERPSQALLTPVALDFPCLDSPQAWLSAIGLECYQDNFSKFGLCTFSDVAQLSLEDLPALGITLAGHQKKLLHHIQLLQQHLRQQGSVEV

[5] = biological target: T3, kinases (KINOMEscan panel) (Homo sapiens, UniProt Q9UQ88); settings: NEW KINOMEscan
T3 sequence (Q9UQ88 1-783): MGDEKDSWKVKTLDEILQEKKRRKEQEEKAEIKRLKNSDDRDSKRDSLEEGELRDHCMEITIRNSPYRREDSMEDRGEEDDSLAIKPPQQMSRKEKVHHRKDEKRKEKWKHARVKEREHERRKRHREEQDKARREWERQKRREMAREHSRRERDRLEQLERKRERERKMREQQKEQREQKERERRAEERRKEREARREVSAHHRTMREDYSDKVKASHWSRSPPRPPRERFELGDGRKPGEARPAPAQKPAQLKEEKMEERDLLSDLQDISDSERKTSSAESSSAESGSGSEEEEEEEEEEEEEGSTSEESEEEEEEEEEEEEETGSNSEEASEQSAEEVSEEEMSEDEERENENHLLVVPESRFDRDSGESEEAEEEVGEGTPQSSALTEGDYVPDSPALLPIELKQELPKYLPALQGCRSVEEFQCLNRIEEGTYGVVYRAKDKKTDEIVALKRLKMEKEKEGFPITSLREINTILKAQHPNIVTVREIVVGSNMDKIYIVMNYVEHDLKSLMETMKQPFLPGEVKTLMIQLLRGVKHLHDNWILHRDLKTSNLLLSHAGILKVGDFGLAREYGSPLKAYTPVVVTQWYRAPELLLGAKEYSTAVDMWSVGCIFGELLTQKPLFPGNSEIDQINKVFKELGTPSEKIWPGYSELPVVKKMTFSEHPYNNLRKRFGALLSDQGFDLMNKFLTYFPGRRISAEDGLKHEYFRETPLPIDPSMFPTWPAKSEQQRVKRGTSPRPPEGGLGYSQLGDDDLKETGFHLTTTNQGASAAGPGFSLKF

kinases (KINOMEscan panel) (Homo sapiens, UniProt Q05655), sequence (Q05655 whole entry): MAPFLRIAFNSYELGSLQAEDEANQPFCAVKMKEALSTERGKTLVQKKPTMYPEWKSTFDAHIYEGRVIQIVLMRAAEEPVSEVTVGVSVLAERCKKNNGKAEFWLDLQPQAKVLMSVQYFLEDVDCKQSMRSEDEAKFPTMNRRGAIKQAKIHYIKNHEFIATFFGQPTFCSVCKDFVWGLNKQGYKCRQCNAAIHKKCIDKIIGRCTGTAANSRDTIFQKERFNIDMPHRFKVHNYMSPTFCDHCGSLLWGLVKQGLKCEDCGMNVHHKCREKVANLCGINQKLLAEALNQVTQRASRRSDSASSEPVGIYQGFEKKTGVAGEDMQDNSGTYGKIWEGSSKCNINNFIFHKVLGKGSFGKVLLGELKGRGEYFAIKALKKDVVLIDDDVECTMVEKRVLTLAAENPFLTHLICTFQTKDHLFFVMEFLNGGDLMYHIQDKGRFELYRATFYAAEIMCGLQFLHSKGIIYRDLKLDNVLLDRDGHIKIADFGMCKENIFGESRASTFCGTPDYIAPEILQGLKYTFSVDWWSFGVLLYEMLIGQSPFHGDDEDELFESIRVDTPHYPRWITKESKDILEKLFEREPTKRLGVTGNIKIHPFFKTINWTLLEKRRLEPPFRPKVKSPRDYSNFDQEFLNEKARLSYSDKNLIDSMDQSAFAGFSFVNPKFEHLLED
kinases (KINOMEscan panel) (Homo sapiens, UniProt P68400), sequence (P68400 whole entry): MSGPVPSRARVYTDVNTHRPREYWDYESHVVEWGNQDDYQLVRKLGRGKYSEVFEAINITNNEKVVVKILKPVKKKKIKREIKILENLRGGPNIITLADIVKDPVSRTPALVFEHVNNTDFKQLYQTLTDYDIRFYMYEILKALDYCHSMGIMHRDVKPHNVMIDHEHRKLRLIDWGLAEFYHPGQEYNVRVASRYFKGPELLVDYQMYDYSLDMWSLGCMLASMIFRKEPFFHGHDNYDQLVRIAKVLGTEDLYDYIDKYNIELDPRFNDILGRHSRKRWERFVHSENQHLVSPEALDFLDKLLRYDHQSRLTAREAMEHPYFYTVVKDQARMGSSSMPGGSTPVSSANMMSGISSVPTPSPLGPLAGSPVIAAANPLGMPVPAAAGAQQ

Compound | KINOMEscan CSNK2A1 [1] | KINOMEscan PRKCD [2] | KINOMEscan BRSK1 [3] | KINOMEscan EPHB6 [4] | KINOMEscan CDK11A [5]
Cc1cccc(-c2nc(Nc3ccc4nn(C)cc4c3)c3ccccc3n2)n1 [NK167] | 0 | 21 | 0 | 0 | 24
Cc1cccc(-c2nc(N(C)c3ccc4ncsc4c3)c3ccccc3n2)n1 [NK-161] | 19 | 16 | 0 | 0 | 25
